Test results from ChEMBL document CHEMBL1144818, “Antifouling activity of a dibrominated cyclopeptide from the marine sponge Geodia barretti” (J Nat Prod, 2008).
Activity calls are given as the source filed them. The rule behind the calls is not given here.

Tests used:
Amphibalanus improvisus [1] = test: Antifouling activity in Balanus improvisus assessed as inhibition of cyprid larvae settlement; format: functional, organism-based
Amphibalanus improvisus [2] = test: Reversal of antifouling activity in Balanus improvisus assessed as inhibition of cyprid larvae settlement at 10 uM after 48 hrs measured after transferring to fresh sea water; format: functional, organism-based
[3] = target: 5-hydroxytryptamine receptor 4 (Homo sapiens) (UniProt Q13639); test: Binding affinity to human 5HT4 receptor expressed in HEK293 cells; format: cell-based
[4] = target: T1, 5-hydroxytryptamine receptor 2C (Homo sapiens) (UniProt P28335); test: Binding affinity to human 5HT2C receptor expressed in HEK293 cells; format: cell-based
T1 sequence (whole entry): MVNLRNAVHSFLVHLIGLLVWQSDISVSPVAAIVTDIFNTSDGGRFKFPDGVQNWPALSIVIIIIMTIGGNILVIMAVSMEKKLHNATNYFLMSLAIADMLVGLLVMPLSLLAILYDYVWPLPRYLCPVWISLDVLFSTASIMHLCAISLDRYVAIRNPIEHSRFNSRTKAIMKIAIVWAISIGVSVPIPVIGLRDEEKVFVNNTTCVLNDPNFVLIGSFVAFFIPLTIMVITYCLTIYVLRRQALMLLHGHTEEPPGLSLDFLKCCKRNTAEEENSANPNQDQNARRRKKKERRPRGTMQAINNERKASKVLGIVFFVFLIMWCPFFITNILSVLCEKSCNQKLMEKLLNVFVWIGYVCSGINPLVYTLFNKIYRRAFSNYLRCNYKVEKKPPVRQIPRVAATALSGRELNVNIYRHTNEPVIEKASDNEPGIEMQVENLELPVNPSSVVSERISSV

[5] = target: 5-hydroxytryptamine receptor 2A (Homo sapiens) (UniProt P28223); test: Binding affinity to human 5HT2A receptor expressed in HEK293 cells; format: cell-based
[6] = target: 5-hydroxytryptamine receptor 4 (Homo sapiens) (UniProt Q13639); test: Binding affinity to human 5HT4 receptor expressed in HEK293 cells below 10 uM; format: cell-based

Sequence of 5-hydroxytryptamine receptor 4 (Homo sapiens) (Q13639 whole entry): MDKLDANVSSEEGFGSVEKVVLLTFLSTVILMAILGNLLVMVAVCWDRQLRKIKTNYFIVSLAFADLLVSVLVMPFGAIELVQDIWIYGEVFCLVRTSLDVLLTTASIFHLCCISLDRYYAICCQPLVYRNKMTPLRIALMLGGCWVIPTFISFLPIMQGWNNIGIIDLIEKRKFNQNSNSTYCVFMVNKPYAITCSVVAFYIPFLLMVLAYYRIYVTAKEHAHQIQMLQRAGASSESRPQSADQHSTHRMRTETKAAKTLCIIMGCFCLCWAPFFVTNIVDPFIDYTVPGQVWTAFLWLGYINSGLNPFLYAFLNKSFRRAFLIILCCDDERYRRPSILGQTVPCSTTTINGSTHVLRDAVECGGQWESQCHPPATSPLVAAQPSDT
Sequence of 5-hydroxytryptamine receptor 2A (Homo sapiens) (P28223 whole entry): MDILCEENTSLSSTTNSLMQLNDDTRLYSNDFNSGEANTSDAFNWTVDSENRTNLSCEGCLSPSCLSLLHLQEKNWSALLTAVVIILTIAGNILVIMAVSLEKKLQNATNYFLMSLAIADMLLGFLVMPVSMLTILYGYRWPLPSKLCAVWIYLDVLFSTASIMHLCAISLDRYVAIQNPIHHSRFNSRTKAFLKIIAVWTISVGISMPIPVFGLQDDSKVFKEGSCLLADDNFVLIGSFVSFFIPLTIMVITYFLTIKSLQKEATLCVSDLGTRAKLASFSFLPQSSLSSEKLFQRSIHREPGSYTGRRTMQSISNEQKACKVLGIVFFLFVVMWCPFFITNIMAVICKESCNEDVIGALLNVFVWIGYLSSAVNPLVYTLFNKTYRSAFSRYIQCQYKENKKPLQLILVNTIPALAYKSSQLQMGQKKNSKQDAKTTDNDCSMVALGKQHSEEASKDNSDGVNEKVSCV

Row | Structure (SMILES) | EC50 (Amphibalanus improvisus [1]) [nM] | Activity (Amphibalanus improvisus [2]) | Activity [3] | Activity [4] | Activity [5] | Activity [6]
1 | N=C(N)NCCC[C@@H]1NC(=O)C(C(O)(c2c[nH]c3cc(Br)ccc23)c2c(Br)ccc3c(=O)o[nH]c23)NC1=O (stereo partly specified) | 15 | Active | inactive | inactive | inactive | 
2 | N=C(N)NCCC[C@@H]1NC(=O)C(Cc2c[nH]c3cc(Br)ccc23)NC1=O (stereo partly specified) |  |  |  |  |  | Active
